Read-outs that look alike come from different tables or passages of the source.
Legend:
[1] = system: rabbit platelet aggregation; experiment: Inhibitory effect on rabbit platelet aggregation; assay type: cell-based; conditions: rabbit PRP
Description: Fresh blood samples were collected from male Japanese white rabbits weighing 2-3 kg. Blood was anticoagulated with citric acid (1 ml 3.8% citric acid solution +9 ml blood). These samples were centrifuged at room temperature for 20 min at 200×g to obtained platelet-rich plasma (PRP). Furthermore, the supernatant liquid was centrifuged for 10 min at 1500×g to obtained platelet-poor plasma (PPP). Aggregation of platelests was measured photometrically in a Nihon Kohden hema tracer equipped with a mechanical stirring device and with a chart record. At this time, the chart recorder was calibrated as follows: the light transmission obtained with PPP was set as 100% transmission and the optical density of PRP was taken as 0% transmission. Maximal aggregation, i.e. the maximal change in optical density of the primary wave calculated in percent light transmission. From the study, it was determined that ADP, Ap3A, PAF(platelet activating factor) and collagen induced maximal aggregations at a concentration of 1×10^-5 M, 1×10^-4 M, 1.9×10^-7 M and 5 μg/kg, respectively. In the following studies, these aggregating agents were used at maximal dose. The effect of Ap4A on platelet aggregation by ADP and Ap3A were tested. In this time, Ap4A was pretreated for 1 or 10 min before the addition of aggregating agents. Also, after the platelet aggregation was induced by addition of ADP, PAF or collagen to PRP, the platelet aggregate dispersing effect of Ap4A was tested.

rats [2] = experiment: Gradual hypotension during anesthesia in rats; assay type: in vivo, male SD rats; conditions: rat, enflurane
Description: Male SD rats (Charles River Japan Inc.) were anesthetized with intravenous thiopental 50 mg/kg as a bolus, followed by 1% enflurane in air.
A femoral artery was catheterized to monitor the blood pressure and heart rate, while a femoral vein was catheterized for the administration of each of the test drugs.
(§1) The control values were obtained before the administration of each test drug. Each test drug was then administered using a syringe in a dose-dependent manner for 15 minutes. The percentage (%) of the decrease of blood pressure was determined when stabilized. Changes in heart rate (H.R.) at the administration of each test drug were measured. Furthermore,the recovery of mean blood pressure after intravenous infusion of each test drug was also determined from the decrease in heart rate and the blood pressure at a maximum dose of each test drug.

rats [3] = experiment: Recovery of blood pressure after gradual hypotension in rats; assay type: in vivo, male SD rats; conditions: rat
Description: FIG. 1 is a graph showing the recovery of the blood pressure of rats anesthetized with enflurane with time, when each of Ap4A ( ), PG E1 ( ) and nitroglycerin ( ) was used as a test drug to attain gradual hypotension, with the blood pressure before the administration of each test drug being set 100% for reference.
The recovery of blood pressure after gradual hypotension by use of each of Ap4A, PG E1 and nitroglycerin was also tested.
as §1
In a test similar to the above, each of Ap4A, PG E1, and nitroglycerin was administered to rats, so that about 65% fall in blood pressure, about 55% fall in blood pressure, and about 35% fall in blood pressure were stepwise attained. With respect to each agent, the recovery of blood pressure was tested.

dogs = experiment: Gradual hypotension during anesthesia in dogs (hemodynamics, blood gas); assay type: in vivo, mongrel dogs; conditions: dog; for Arterial Carbonate Tension PaCO2 / Arterial Oxygen Tension PaO2 / Arterial pH (pH-a) / Body Temperature BT / Cardiac Output C.O. / Central Venous Pressure CVP / Dose / Heart Rate H.R. / Hematocrit Value Hct / Mean Blood Pressure B.P. (mean) / Mean Blood Pressure B.P. (Δ%) / Mixed Venous Carbonate Tension PvCO2 / Mixed Venous Oxygen Tension PvO2 / Mixed Venous pH (pH-v) / Pulmonary Artery Pressure PAM / Pulmonary Capillary Wedge Pressure PCWP: enflurane
Description: Dogs were anesthetized with enflurane. […] The mean blood pressure (B.P.), heart rate (H.R.), cardiac output (C.O.), arterial oxygen tension (PaO2), mixed venos oxygen tension (PvO2), arterial carbonate tension (PaCO2), mixed venous carbonate tension (PvCO2), arterial pH (pH-a), mixed venous pH (pH-v), and base excess thereof were measured.
Mongrel dogs weighing 9 to 17 kg were anesthetized with intravenous thiopental 20 mg/kg by bolus injection, followed by 1% enflurane in 40% O2 /N2 after endotracheal intubation. […] Bilateral femoral arteries were catheterized, one for the determination of blood pressure and the other for blood sampling.
Access to the bilateral femoral veins was obtained for the administration of Ap4A, PG E1 or nitroglycerin and for the insertion of a ballon-tipped thermodilution catheter. The electrocardiogram was continuously monitored. The control values were obtained before the administration of each of the above-mentioned three agents. Each agent was administered using a syringe pump at titrated doses to produce gradual 20%, 40%, 50%, 60%, and 80% decreases in the mean arterial pressure (MAP) from the control value.
After the target blood pressure and stable hemodynamic conditions were reached, the following parameters were measured: heart rate (HR), mean pulmonary artery pressure (PAM), pulmonary capillary wedge pressure (PCWP), and central venous pressure (CVP). Cardiac output (CO) was determined by the thermodilution method. Gas analyses of arterial and mixed venous bloods were performed using a blood gas analyzer.

[4] = words, cited from earlier work

collagen [reference compound]
concentration inducing maximal platelet aggregation [1]: 5 µg/kg

CCCCC[C@H](O)/C=C/[C@H]1[C@H](O)CC(=O)[C@@H]1CCCCCCC(=O)O [PG E1, prostaglandin E1, reference compound]
Blood Pressure (Δ%) (rats [2]; infusion 0.03 μg/kg/min): 0%
Heart Rate (Δ%) (rats [2]; infusion 0.03 μg/kg/min): 0%
Blood Pressure (Δ%) (rats [2]; infusion 0.1 μg/kg/min): 0%
Heart Rate (Δ%) (rats [2]; infusion 0.1 μg/kg/min): 0%
Blood Pressure (Δ%) (rats [2]; infusion 0.3 μg/kg/min): -1.9 ± 1.9%
Heart Rate (Δ%) (rats [2]; infusion 0.3 μg/kg/min): -0.3 ± 0.3%
Blood Pressure (Δ%) (rats [2]; infusion 1 μg/kg/min): -9.8 ± 3.1%
Heart Rate (Δ%) (rats [2]; infusion 1 μg/kg/min): -1.2 ± 1.4%
Blood Pressure (Δ%) (rats [2]; infusion 3 μg/kg/min): -26.2 ± 4.0%
Heart Rate (Δ%) (rats [2]; infusion 3 μg/kg/min): -8.0 ± 3.4%
Blood Pressure (Δ%) (rats [2]; infusion 10 μg/kg/min): -48.0 ± 2.7%
Heart Rate (Δ%) (rats [2]; infusion 10 μg/kg/min): -13.6 ± 2.9%
recovered blood pressure (before administration = 100%) (rats [3]; 15 minutes): about 85%
fall in blood pressure attained before recovery (rats [3]; stepwise): about 55%
rapidness of the recovery of blood pressure (rats [3]; order in words): Ap4A>PG E1 >nitroglycerin
Arterial Carbonate Tension PaCO2 (dogs; at -20% blood pressure): 37.3 ± 1.4 mmHg
Arterial Oxygen Tension PaO2 (dogs; at -20% blood pressure): 251.6 ± 8.3 mmHg
Arterial pH (pH-a) (dogs; at -20% blood pressure): 7.323 ± 0.015
Body Temperature BT (dogs; at -20% blood pressure): 37.4 ± 0.6 °C
Cardiac Output C.O. (dogs; at -20% blood pressure): 1.47 ± 0.18 L/min
Central Venous Pressure CVP (dogs; at -20% blood pressure): 3.27 ± 0.59 mmHg
Dose (dogs; at -20% blood pressure): 1.66 ± 0.48 µg/kg/min
Heart Rate H.R. (dogs; at -20% blood pressure): 167.8 ± 8.6 beats/min
Hematocrit Value Hct (dogs; at -20% blood pressure): 41.5 ± 2.9%
Mean Blood Pressure B.P. (mean) (dogs; at -20% blood pressure): 107.2 ± 5.3
Mean Blood Pressure B.P. (Δ%) (dogs; at -20% blood pressure): -20.3 ± 0.4%
Mixed Venous Carbonate Tension PvCO2 (dogs; at -20% blood pressure): 41.3 ± 1.3 mmHg
Mixed Venous Oxygen Tension PvO2 (dogs; at -20% blood pressure): 51.0 ± 1.0 mmHg
Mixed Venous pH (pH-v) (dogs; at -20% blood pressure): 7.303 ± 0.009
Pulmonary Artery Pressure PAM (dogs; at -20% blood pressure): 16.0 ± 3.8 mmHg
Pulmonary Capillary Wedge Pressure PCWP (dogs; at -20% blood pressure): 9.0 ± 3.0 mmHg
Arterial Carbonate Tension PaCO2 (dogs; at -40% blood pressure): 36.0 ± 0.7 mmHg
Arterial Oxygen Tension PaO2 (dogs; at -40% blood pressure): 249.3 ± 6.0 mmHg
Arterial pH (pH-a) (dogs; at -40% blood pressure): 7.334 ± 0.012
Body Temperature BT (dogs; at -40% blood pressure): 37.3 ± 0.6 °C
Cardiac Output C.O. (dogs; at -40% blood pressure): 1.20 ± 0.14 L/min
Central Venous Pressure CVP (dogs; at -40% blood pressure): 3.12 ± 0.47 mmHg
Dose (dogs; at -40% blood pressure): 3.61 ± 1.01 µg/kg/min
Heart Rate H.R. (dogs; at -40% blood pressure): 155.5 ± 9.1 beats/min
Hematocrit Value Hct (dogs; at -40% blood pressure): 39.8 ± 3.3%
Mean Blood Pressure B.P. (mean) (dogs; at -40% blood pressure): 79.8 ± 4.6
Mean Blood Pressure B.P. (Δ%) (dogs; at -40% blood pressure): -40.7 ± 0.5%
Mixed Venous Carbonate Tension PvCO2 (dogs; at -40% blood pressure): 39.7 ± 1.0 mmHg
Mixed Venous Oxygen Tension PvO2 (dogs; at -40% blood pressure): 50.0 ± 1.9 mmHg
Mixed Venous pH (pH-v) (dogs; at -40% blood pressure): 7.286 ± 0.012
Pulmonary Artery Pressure PAM (dogs; at -40% blood pressure): 13.3 ± 3.0 mmHg
Pulmonary Capillary Wedge Pressure PCWP (dogs; at -40% blood pressure): 6.8 ± 2.1 mmHg
Arterial Carbonate Tension PaCO2 (dogs; at -50% blood pressure): 36.9 ± 1.0 mmHg
Arterial Oxygen Tension PaO2 (dogs; at -50% blood pressure): 251.7 ± 9.3 mmHg
Arterial pH (pH-a) (dogs; at -50% blood pressure): 7.303 ± 0.017
Body Temperature BT (dogs; at -50% blood pressure): 37.2 ± 0.6 °C
Cardiac Output C.O. (dogs; at -50% blood pressure): 1.17 ± 0.11 L/min
Central Venous Pressure CVP (dogs; at -50% blood pressure): 3.48 ± 0.56 mmHg
Dose (dogs; at -50% blood pressure): 4.77 ± 1.14 µg/kg/min
Heart Rate H.R. (dogs; at -50% blood pressure): 143.3 ± 7.3 beats/min
Hematocrit Value Hct (dogs; at -50% blood pressure): 40.0 ± 3.5%
Mean Blood Pressure B.P. (mean) (dogs; at -50% blood pressure): 67.5 ± 3.4
Mean Blood Pressure B.P. (Δ%) (dogs; at -50% blood pressure): -49.8 ± 0.2%
Mixed Venous Carbonate Tension PvCO2 (dogs; at -50% blood pressure): 41.6 ± 0.6 mmHg
Mixed Venous Oxygen Tension PvO2 (dogs; at -50% blood pressure): 53.3 ± 4.5 mmHg
Mixed Venous pH (pH-v) (dogs; at -50% blood pressure): 7.278 ± 0.015
Pulmonary Artery Pressure PAM (dogs; at -50% blood pressure): 12.8 ± 2.7 mmHg
Pulmonary Capillary Wedge Pressure PCWP (dogs; at -50% blood pressure): 6.7 ± 2.0 mmHg
Arterial Carbonate Tension PaCO2 (dogs; at -60% blood pressure): 36.8 ± 1.0 mmHg
Arterial Oxygen Tension PaO2 (dogs; at -60% blood pressure): 253.2 ± 11.92 mmHg
Arterial pH (pH-a) (dogs; at -60% blood pressure): 7.308 ± 0.022
Body Temperature BT (dogs; at -60% blood pressure): 36.9 ± 0.7 °C
Cardiac Output C.O. (dogs; at -60% blood pressure): 1.04 ± 0.10 L/min
Central Venous Pressure CVP (dogs; at -60% blood pressure): 3.70 ± 0.76 mmHg
Dose (dogs; at -60% blood pressure): 5.91 ± 1.49 µg/kg/min
Heart Rate H.R. (dogs; at -60% blood pressure): 134.6 ± 7.2 beats/min
Hematocrit Value Hct (dogs; at -60% blood pressure): 38.4 ± 4.5%
Mean Blood Pressure B.P. (mean) (dogs; at -60% blood pressure): 56.0 ± 4.3
Mean Blood Pressure B.P. (Δ%) (dogs; at -60% blood pressure): -58.1 ± 1.3%
Mixed Venous Carbonate Tension PvCO2 (dogs; at -60% blood pressure): 40.6 ± 1.2 mmHg
Mixed Venous Oxygen Tension PvO2 (dogs; at -60% blood pressure): 49.9 ± 3.1 mmHg
Mixed Venous pH (pH-v) (dogs; at -60% blood pressure): 7.275 ± 0.016
Pulmonary Artery Pressure PAM (dogs; at -60% blood pressure): 12.4 ± 3.4 mmHg
Pulmonary Capillary Wedge Pressure PCWP (dogs; at -60% blood pressure): 6.2 ± 2.2 mmHg
effect on arterial pH / venous pH (dogs; result in words): significantly decrease arterial pH or have a tendency to decrease arterial pH
effect on carbonate tension (dogs; result in words): almost no effects on the oxygen tension and carbonate tension
effect on heart rate (dogs; result in words): tendency to increase the heart rate when a 20% or less fall in blood pressure is attained
effect on oxygen tension (dogs; result in words): almost no effects on the oxygen tension and carbonate tension

FC(F)(F)C(Cl)Br (stereo not drawn) [Halothane]
shortcomings / adverse effects [4]: hepatotoxicity and sthenia of brain pressure

Nc1ncnc2c1ncn2[C@@H]1O[C@H](COP(=O)(O)OP(=O)(O)O)[C@@H](O)[C@H]1O [ADP, adenosine diphosphate, reference compound]
concentration inducing maximal platelet aggregation [1]: 10 µM

CCCCCCCCCCCCCCCCOCC(COP(=O)([O-])OCC[N+](C)(C)C)OC(C)=O (stereo not drawn) [PAF, reference compound]
concentration inducing maximal platelet aggregation [1]: 0.19 µM

O=C1N(Cc2ccccc2)C2C[S+]3CCCC3C2N1Cc1ccccc1 (stereo not drawn) [trimethaphan, Trimethaphan]
shortcomings / adverse effects [4]: renal insufficiency because of tubular impairment near the kidney, tachyphylaxis, tachycardia, and mydriasis after its use
shortcomings / adverse effects ([4]; listed as Trimethaphan): cardiac contractility, cardiac output, and coronary blood flow are decreased by the ganglionic blockade thereof and histamine liberation effect is increased

Nc1ncnc2c1ncn2[C@@H]1O[C@H](COP(=O)(O)OP(=O)(O)OP(=O)(O)OC[C@H]2O[C@@H](n3cnc4c(N)ncnc43)[C@H](O)[C@@H]2O)[C@@H](O)[C@H]1O [Ap3A, diadenosine 5', 5'"-p^1,p^4 -triphosphate, reference compound]
concentration inducing maximal platelet aggregation [1]: 100 µM
